21 compounds from US6956046B2, “4-hydroxypiperidine derivatives having analgesic activity” (priority 2001, dated 2005) can be followed below.

For series [1], the system named is formalin-induced nociceptive response in rats. Kind of series: Inhibitory effect on the formalin-induced nociceptive response in rats. Conditions: oral, 30 minutes before subcutaneous formalin; probit method. It is filed as in vivo, rat. The procedure:
[Inhibitory Effect on the Formalin-induced Nociceptive Response in Rats]
The experiment was undertaken by the method disclosed by Doak et al., Eur. J. Pharmacol. 281:311, 1995. Specifically, 50 μL of 0.5% formalin solution was subcutaneously injected into the left foot pad of the rat, and then each behavior of the rat consisting of the licking or biting of the pad immediately following the injection was checked with a stopwatch for its duration, and its cumulative duration was recorded at five minute intervals. The nociceptive response observed in 10 minutes after the injection was termed a first-phase response while the response observed between 10 minutes and 45 minutes after the injection was termed a second-phase response. The test compound was orally applied to the rat 30 minutes before the subcutaneous injection of formalin. Then, the inhibitory effect of the test compound on the nociceptive response induced by the formalin injection was calculated according to the following formula and 30% inhibition dose (ED30 value) was determined by the probit method. To mention, for illustration, ED30 value of carbamazepine was 27 mg/kg. Percent inhibition (%)=[(PRcontrol−PRtest)/PRcontrol]×100 wherein PRtest is the response time (sec) of the test group which received formalin and the test compound, while PRcontol is the response time of the control group which. received formalin and vehicle.

Series [2] deals with rat model made by loosely constricting the sciatic nerve. In words: Efficacy in the rat model made by loosely constricting the sciatic nerve (von Frey response threshold). It is filed as in vivo. Conditions: for Mean threshold (g) Injured foot (left) / Mean threshold (g) Normal foot (right): one hour after dosing. The protocol: [Efficacy in the Rat Model Made by Loosely Constricting the Sciatic Nerve]
Preparation of the rat pain model based on the constriction of the sciatic nerve was performed by the method introduced by Bennett et al. (“Pain,” 33:87, 1988). Specifically, the rat was anesthetized with i.p. injection of pentobarbital sodium at 40 mg/kg; the overlying skin was cut open; and the left biceps femoris muscle was bluntly separated. The sciatic nerve was isolated from surrounding tissues; it was gently constricted at four sites about 1 mm apart from each other by the use of surgical gut sutures (4-0 or 3-0 chromic gut); the operated part was closed; and the rat was returned to its cage for further feeding. For the rat belonging to the sham-surgery group, the same operation was performed except that the sciatic nerve was left untouched. Two weeks after the surgery, the response threshold to a mechanical stimulus consisting of touch with von Frey filaments was determined. The test proceeded as follows: the test compound was orally applied to the rat having the sciatic nerve constricted; one hour later, von Frey hairs were applied against the foot pad (spots ranging from heel to the mid-point of foot) one after another in an ascending order of their stiffness; if the rat raises its foot when a certain von Frey hair was applied, the stimulus intensity of that hair was taken as the response threshold (maximum stimulus intensity being 28.84 g).

Series [3] relates to Wistar Hannover female rats. In words: Toxicological study, oral, rats. It is filed as in vivo, rat. The note with it: oral 40 mg/kg/day, 6 week-old female rats; for survival: examination period. The procedure:
The compounds of Example 8 or Example 12 were orally given to 6 week-old Wistar Hannover female rats at 40 mg/kg/day.
The compound of Example 29 was orally given to 6 week-old Wistar Hannover female rats at 400 mg/Kg/day once daily for 14 days, respectively.

Series [4] is described as follows: Pharmacokinetics: plasma concentration after a single oral administration. The class given is in vivo. The note with it: male rhesus monkey. The text has this: The compound of Example 12 or Example 29 were studied about time-course profile of plasma concentration after a single oral administration to 3 or 4 year-old male rhesus monkey. […] Therefore, it can be considered to cause unlikely the drug-drug interaction by the compounds. […] Therefore, it can be considered that the compounds are unlikely metabolized by first pass effect.

Series [5] is described as follows: Metabolic stability in rat liver microsomes and hepatocytes. The class given is in vitro ADME. On the technique in general: Liver microsomes are a subcellular fraction often used to study metabolism.
Series [6] in a line: Metabolic stability in dog liver microsomes and hepatocytes. The class given is in vitro ADME.
Series [7] is described as follows: Metabolic stability in human liver microsomes and hepatocytes. It is filed as in vitro ADME.
The subject of series [8] is human-drug metabolizing enzymes. In words: Inhibitory effect on human-drug metabolizing enzymes. The class given is in vitro ADME.
The subject of another series is rhesus male monkey. In words: Holter ECG test. The class given is in vivo. The note with it: oral 80 mg/Kg, 4 year-old rhesus male monkey. The protocol:
In Holter ECG test, the compound of Example 12 or Example 29 were orally given to 4 year-old rhesus male monkey at 80 mg/Kg. There was no effect in electrocardiogram.

A further series deals with rhesus male monkeys. Kind of series: Toxicological study, oral, 14 days, monkeys. The note with it: oral 20 mg/Kg/day once daily for 14 days. It is filed as in vivo, rhesus monkey. The procedure:
The compound Example 12 or Example 29 were orally given to 3 year-old rhesus male monkeys at 20 mg/Kg/day and 40 mg/Kg/day, respectively, once daily for 14 days.

Series [9] in a line: Metabolic stability in monkey liver microsomes and hepatocytes. The class given is in vitro ADME.

A word on the melting point: it is the temperature of the solid-liquid transition. In the case of `Cl.N#Cc1ccc(CCN2CCC(O)(COc3ccc(C(N)=O)cc3)CC2)cc1`, the melting point is 251 to 254.9 °C.

`CN(CC1(O)CCN(CCc2ccc(C#N)cc2)CC1)c1cccc(C(=O)O)c1.Cl` yielded a melting point of 125.5 to 129.7 °C.

In turn, `CN(CC1(O)CCN(CCc2ccc(C#N)cc2)CC1)c1ccccc1C(=O)O.Cl` had a melting point of 195.3 to 200.6 °C.

For the compound `CN(CC1(O)CCN(CCc2ccc(C#N)cc2)CC1)c1ccc([N+](=O)[O-])cc1.Cl`, the melting point lay within 169.8 to 173.6 °C.

Regarding `Cl.N#Cc1ccc(CCN2CCC(O)(CNc3ccc(C(=O)O)cc3)CC2)cc1`, the melting point was 247.7 to 253.2 °C.

As to `CN(CC1(O)CCN(CCc2ccc(S(C)(=O)=O)cc2)CC1)c1ccc(C(=O)O)cc1.Cl`, the melting point lay within 246.5 to 249.6 °C.

In turn, `CN(CC1(O)CCN(CCc2ccccc2)CC1)c1ccc(C(=O)O)cc1.Cl` registered a melting point of 242.5 to 245 °C.

`CN(CC1(O)CCN(CCc2cccc(C#N)c2)CC1)c1ccc(C(=O)O)cc1.Cl` gave a melting point of 166.8 to 176.4 °C.

`CN(CC1(O)CCN(CCc2ccccc2C#N)CC1)c1ccc(C(=O)O)cc1.Cl`: the melting point was 197.2 to 222.4 °C.

As for `Cl.N#Cc1ccc(CCN2CCC(O)(COc3ccc(O)cc3)CC2)cc1`, the melting point was 253 to 255.6 °C.

On to `COC(=O)c1ccc(OCC2(O)CCN(CCc3ccc(C#N)cc3)CC2)cc1.Cl`, for which the melting point lay within 183.7 to 189.7 °C.

Turning to `NC(=O)N1c2ccccc2C=Cc2ccccc21` [Carbamazepine, carbamazepine, reference compound], the “ED30 value (30% inhibition dose)” value in series [1] worked out at 27 mg/kg. For the same compound, in series [2] (dose 30 mg/kg oral), the “Mean threshold (g) Injured foot (left)” value is on record as 9.01 g and the “Mean threshold (g) Normal foot (right)” value is 20.53 g. The “threshold of the injured paw to a mechanical stimulus (in words)” value in series [2] (injured side) is “significantly raised”. Moreover, the “response threshold of the normal paw (in words)” value in series [2] (normal side) is on record as “significantly raised”.

The compound `N#Cc1ccc(CCN2CCC(O)(COc3ccc(C(N)=O)cc3)CC2)cc1` [Example 5, 4-(4-carbamoylphenoxymethyl)-1-[2-(4-cyanophenyl)ethyl]-piperidin-4-ol] had a melting point of 192.1 to 193.2 °C.

With `N#Cc1ccc(CCN2CCC(O)(COc3ccc([N+](=O)[O-])cc3)CC2)cc1` [Example 6, 1-[2-(4-cyanophenyl)ethyl)-4-(4-nitrophenoxymethyl)piperidin-4-ol], the melting point is 134.7 to 156.7 °C.

As to `Cl.N#Cc1ccc(CCN2CCC(O)(COc3ccc(CO)cc3)CC2)cc1` [Example 8, 1-[2-(4-cyanophenyl)ethyl]-4-(4-hydroxymethylphenoxymethyl)piperidin-4-ol hydrochloride], in [3], the general appearance result was “no abnormalities” and the survival entry is “all the rats survived”.

With `Cl.N#Cc1ccc(CCN2CCC(O)(COc3ccc([N+](=O)[O-])cc3)CC2)cc1` [Example 11, 1-[2-(4-cyanophenyl)ethyl]-4-(4-nitrophenoxymethyl)piperidin-4-ol hydrochloride], the melting point was in the range of 219.6 to 221.3 °C. For the same compound, the “ED30 value (30% inhibition dose)” value in series [1] is on record as 0.047 mg/kg.

On to `Cl.N#Cc1ccc(CCN2CCC(O)(COc3ccc(C(=O)O)cc3)CC2)cc1` [Example 12, 4-{1-[2-(4-cyanophenyl)ethyl]-4-hydroxypiperidin-4-ylmethoxy}benzoic acid hydrochloride], for which the bioavailability result in series [4] is given as “very good bioavailability”. Moreover, the “maximum plasma concentration (Cmax) and area under the plasma concentration-time curve (AUC) versus dose” value in series [4] was “increased almostly in proportion to the doses”. Also, the metabolic stability result in series [5], in series [6], in series [7] and in series [9] was “metabolically stable” in each case. Moreover, the “ED30 value (30% inhibition dose)” value in series [1] came out at 2.0 mg/kg. Also, the general appearance entry in series [3] was “no abnormalities”. The figures for the survival entry (in series [3]; in the series on rhesus male monkeys (until 24 hours after final administration)) were “all the rats survived” and “All the monkeys survived”, respectively. The “Mean threshold (g) Injured foot (left)” value in series [2] (dose 1 mg/kg oral) is listed as 7.96 g; in series [2] (dose 3 mg/kg oral) it was 8.92 g; in series [2] (dose 10 mg/kg oral), 10.96 g. Further, the “Mean threshold (g) Normal foot (right)” value came to 14.29 g in series [2] (dose 1 mg/kg oral), 14.71 g in [2] (dose 3 mg/kg oral) and 14.29 g in [2] (dose 10 mg/kg oral). Besides, the “inhibitory effect on human-drug metabolizing enzymes” value in series [8] is given as “no serious inhibitory effect”. For the same compound, in the series on rhesus male monkey, the effect in electrocardiogram result is listed as “no effect”. For the same compound, the “general appearances, body weight gains and food consumptions” value in the series on rhesus male monkeys is given as “no abnormalities”. In addition, the “hematology, biochemistry, organ weight, and histopathology” value in the series with rhesus male monkeys is recorded as “No abnormal findings”.

Compound `CN(CC1(O)CCN(CCc2ccc(C#N)cc2)CC1)c1cccc(C(=O)O)c1` [Example 15, 3-({1-[2-(4-cyanophenyl)ethyl]-4-hydroxypiperidin-4-ylmethyl}methylamino)benzoic acid] yielded a melting point of 181.9 to 189.1 °C.

On to `CN(CC1(O)CCN(CCc2ccc(C#N)cc2)CC1)c1ccc([N+](=O)[O-])cc1` [Example 16, 4-[2-(4-hydroxy-4-{[methyl(4-nitrophenyl)amino]methyl}piperidin-1-yl)ethyl]benzonitrile], for which the melting point was 98.3 to 108.1 °C.

Turning to `CN(CC1(O)CCN(CCc2ccc(C#N)cc2)CC1)c1ccc(-c2nnn[nH]2)cc1` [Example 17, 4-{2-[4-hydroxy-4-({methyl[4-(1H-tetrazol-5-yl)phenyl]-amino}methyl)piperidin-1-yl]ethyl}benzonitrile], the melting point was 159.7 to 171.8 °C.

For `CN(CC1(O)CCN(CCc2ccc(C#N)cc2)CC1)c1ccccc1C(=O)O` [Example 19, 2-({1-[2-(4-cyanophenyl)ethyl]-4-hydroxypiperidin-4-ylmethyl}methylamino)benzoic acid], the melting point is 106.5 to 116.2 °C.
